# Reference: patent US12208096B2, “Effective treatment of depression in patients having impaired learning and/or memory or certain EEG characteristics with a benzylpiperazine-aminopyridine agent” (Alto Neuroscience, Inc., priority 2022, dated 2025)
# Experiments:
# [1] = test system: patients with major depression; details: total daily doses of 40 mg, 80 mg or 120 mg; 18 patients on active drug; cited from earlier work
# [2] = test system: patients having major depressive disorder; details: cited from earlier work
# [3] = test system: subjects with moderate to severe depression; assay: Additional clinical trial with NSI-189 (20 subjects, MADRS); type: in vivo, human; details: 80 mg (40 mg BID)
# patients with PTSD = assay: Open-label Phase 2 clinical trial of NSI-189 in PTSD (CAPS-5); type: in vivo, human; details: 40 mg BID, recall index cutoff z<=-0.5, week 4
# Description: These patients underwent the same cognitive battery as patients with depression. As above, MMRM analyses were applied on the Clinician Administered PTSD Scale for DSM-5 (CAPS-5) change from baseline scores in PTSD patients. This analysis included 84 patients.
# The overall sample using MMRMs that included core terms for time, baseline, group (i.e., poor versus good cognition as defined by a given measure of interest), time x group and time by baseline. The analyses shown in FIG. 12 used a z≤−0.5 cutoff on recall index scores in order to identify poor cognition patients (with z-scores determined with reference to a separate healthy population identically as for the depressed patients above). This cutoff ensured that poor cognition patients are impaired in this task.
# patients with MDD = assay: Open-label Phase 2 clinical trial of NSI-189 as monotherapy or adjunctive treatment in depression (MADRS); type: in vivo, human
# Description: These patients also underwent a more comprehensive cognitive battery than in the prior Phase 2 study. As above, MMRM analyses were applied on MADRS change from baseline scores in MDD patients. […] In this study, the current episode was determined by the either the prior two years, or the period within the prior two years since the last time at which two continuous months of euthymia occurred, whichever was shorter. Insufficient response to an antidepressant in the current episode was defined as less than a 50% reduction in symptoms (e.g., based on the total score on the MADRS or HDRS).
# All analyses used a z=−0.75 cutoff to identify poor cognition patients (with z-scores determined with reference to a separate healthy population) in order to ensure that poor cognition patients are impaired in those tasks.
# An overall cognitive performance variable comprised of measures of executive function (digit-symbol substitution task, Wisconsin card sorting task, trail making task, Corsi blocks, verbal fluency), information processing speed (flanker task, choice RT, simple RT) and verbal learning and/or memory was analyzed.
# Learning and/or memory was assessed with a word list task, in which patients are given the word lists on five learning trials, and then memory is assessed through recall of those word lists immediately after learning and again after an approximately 20 minute delay (including after inclusion of a new distractor list of words). This computer-implemented task is named VM-REACT (Verbal memory recall computerized test) and is further described in Naparstek et al., J Psychiatr Res., 2019, 114:170-177 (PMID 31096177).
# Another way of analyzing the PSD is through the observation that the background trend in the data can be quantified as a measure of background neural activity and has a 1/f relationship (where f is frequency). One way of quantifying this signal is termed the aperiodic exponent, which is estimated as the negative slope for the line of best fit over the 1-50 Hz range of the power spectral density in the log-log space (T. Donoghue, et al., Nat Neurosci, 23(12): 1655-1665 December 2020). Channel-wise correlation of the aperiodic exponent with treatment outcome (as percentage change in MADRS scores from baseline) was examined.
# [4] = test system: patients having major depressive disorder; assay: First Phase 2 clinical trial of NSI-189 in major depressive disorder (220 patients, SPCD design), original and retrospective analysis; type: in vivo, human
# Description: A subsequent Phase 2 study was then performed on 220 patients with major depression (11). […] Treatment in either stage was given for six weeks. This design is termed a Sequential Parallel Clinical Design (SPCD) and is analyzed statistically by combining results in a pre-defined manner for outcomes differences between relevant groups (e.g., drug vs. placebo) in each of the stages individually. There are two depression outcome measures accepted by the FDA for the evaluation of adults. See the June 2018 FDA draft guidance entitled “Major Depressive Disorder: Developing Drugs for Treatment.” These are the Montgomery-Asberg Depression Rating Scale (MADRS), which was the primary outcome in this study, as well as the Hamilton Depression Rating Scale (HDRS) which was a key secondary outcome measure.
# The remaining patients continued their treatment for stage 2 of the trial. Treatment in either stage was given for six weeks. Patients were eligible for study participation if they were between the ages of 18-60 years, with current major depressive disorder of at least 8 weeks duration according to the DSM-5, as diagnosed by the Structured Clinical Interview for the DSM-5 clinical trial version (SCID-5-CT) during the screen and remote assessment visits, and if they were scored at least 20 at screen, remote assessment, and baseline visits on the Montgomery-Asberg Depression Rating Scale (MADRS). The phase 2 study collected cognitive task performance data prior to treatment, and then again after both stage 1 and stage 2 of the treatment protocol. The purpose of doing so was to determine whether treatment with this compound results in improvement in cognitive functioning, as measured by a variety of behavioral measures.
# Prior to the inventor's retrospective analysis, there was no consideration as to using behavioral measures to predict treatment outcome nor was there any analysis conducted to this effect. There was no consideration of using cognitive performance as a predictor but only as an outcome measure. […] The tasks in this battery included a simple reaction time (RT) task, a choice RT task, a one-back working memory task, and a visual learning task. Moreover, given the conversion to z-score, a composite cognitive task performance score could be computed by averaging the z-scores for each of the four tasks in the battery. Analyses focused on the MADRS primary outcome of the study. Statistical analyses focused on the complete trial (incorporating both stage 1 and stage 2 outcomes), using the SPCD analytic approach reported in the original study and thus aligned could be compared with the original statistical analysis plan. Mixed models repeated measures (MMRM) were used to predict change from baseline (at 2, 4, and 6 weeks) in clinical scores and included covariates for group (i.e., poor versus good cognition as defined by a given measure of interest), time, time x group, time x baseline MADRS and baseline MADRS. These covariates likewise were used in the original study, and thus results here can be compared with the all-comer results reported previously. Statistical significance was thus assessed on the primary outcome (MADRS change from baseline at 6 weeks across the SPCD design). The change in MADRS scores in the all corner (i.e. original sample) analysis is shown in FIG. 1(A) for comparison to subgroups as defined by cognitive task performance.
# To examine the effect of baseline cognition on clinical outcomes, individuals were split at the mean of the average z-score across all tasks (thus a cognition composite score). This generates two groupings, which were termed poor cognition (below mean, negative z scores) or good cognition (above mean, positive z scores). The poor cognition group can also be termed to be cognitively impaired. […]
# [5] = all patients, 40 mg or 80 mg daily vs placebo, full SPCD analysis or each stage alone
# [6] = 80 mg, regardless of how the clinical population was defined
smiles,measurement,setting,value
"CC(C)CCNc1ncccc1C(=O)N1CCN(Cc2ccccc2)CC1 [NSI-189, (4-benzylpiperazin-1-yl)-[2-(3-methylbutylamino)pyridin-3-yl]methanone]",antidepressant efficacy,[1],promising evidence for potential antidepressant efficacy
same,effects on several secondary measures compared to placebo,"[2]; 40 mg dose, not corrected for multiple comparisons",nominally significant effects
same,efficacy on any study measure,"[2]; 80 mg daily dose, all patients",did not demonstrate efficacy on any study measure
same,antidepressant efficacy on the HDRS key secondary measure,[2]; [5],failed to demonstrate any evidence of antidepressant efficacy
same,antidepressant efficacy on the MADRS primary outcome measure,[2]; [5],failed to demonstrate any evidence of antidepressant efficacy
same,"all-comer drug placebo difference, Cohen's d","[2]; all-comer population, prior Phase 2 study",~0.2
same,"MADRS improvement, poor versus good cognition patients","[3]; poor verbal memory z<-0.5, week 8",trend
same,"MADRS improvement, poor versus good cognition patients","[3]; poor verbal memory z<-0.5, weeks 2, 4, and 6",large and statistically significantly greater improvement
same,"CAPS-5 change from baseline, poor versus good cognition",patients with PTSD,significantly greater reduction in PTSD symptoms
same,"MADRS outcome, self-reported poor versus good cognition","patients with MDD; 80 mg (40 mg BID), CPFQ>25 vs <=25",no significant differences
same,"MADRS outcome, subjective diminishment of memory recall (CPFQ item)","patients with MDD; 80 mg (40 mg BID), moderate or greater vs minimal or less diminishment",not predictive of outcome
same,"reduction in the MADRS score, poor versus good cognition patients","patients with MDD; 80 mg (40 mg BID), overall cognitive composite cutoff z=-0.75",significantly better improvement in depressive symptoms
same,"Cohen's d, MADRS outcome, poor delayed recall versus good","patients with MDD; 80 mg (40 mg BID), week eight, p=0.004",0.61
same,"Cohen's d, MADRS outcome, poor immediate recall versus good","patients with MDD; 80 mg (40 mg BID), week eight, p=0.010",0.56
same,"Cohen's d, MADRS outcome, poor delayed recall versus good","patients with MDD; 80 mg (40 mg BID), week four, p=0.045",0.40
same,"Cohen's d, MADRS outcome, poor delayed recall versus good","patients with MDD; 80 mg (40 mg BID), week six, p=0.001",0.67
same,"Cohen's d, MADRS outcome, poor immediate recall versus good","patients with MDD; 80 mg (40 mg BID), week six, p=0.022",0.48
same,"Cohen's d, MADRS outcome, poor delayed recall versus good","patients with MDD; 80 mg (40 mg BID), week two, p=0.028",0.43
same,"change in MADRS from baseline, low versus high aperiodic exponent patients","patients with MDD; 80 mg, EEG resting eyes closed, split at the median",significantly better depression outcome
same,"remission rates, poor versus good learning and/or memory patients",patients with MDD; [6],approximately double
same,"response rates, poor versus good learning and/or memory patients",patients with MDD; [6],approximately double
same,response rates on the MADRS (50% or greater reduction),"patients with MDD; poor learning and/or memory patients, 80 mg open label, across definitions of the clinical population",60-82%
same,"drug-placebo effect size Cohen's d, change in MADRS scores","[4]; 80 mg arm vs placebo, poor cognition group (cognitive composite score), SPCD analysis Stage 1 and Stage 2, p=0.014",0.58
same,"change in MADRS scores, either drug arm versus placebo","[4]; good cognition group, 40 mg or 80 mg, p=0.25",no significant differences
same,"change in MADRS scores, 40 mg group versus placebo","[4]; poor cognition group, p=0.39",not significant
same,"Cohen's d, change in MADRS, 80 mg arm versus placebo","[4]; poor cognition group, stage 1, week 2, p=0.045",0.55
same,"Cohen's d, change in MADRS, 80 mg arm versus placebo","[4]; poor cognition group, stage 1, week 4, p=0.01",0.7
same,"Cohen's d, change in MADRS, 80 mg arm versus placebo","[4]; poor cognition group, stage 1, week 6, p=0.03",0.59
same,"change in MADRS scores, 80 mg versus placebo","[4]; poor self-reported cognition, CPFQ score >25",no difference is seen between treatment arms
